{"source": "patent US12258339B2", "about": "“Macrocyclic complexes of alpha-emitting radionuclides and their use in targeted radiotherapy of cancer” (Cornell University, priority 2018, dated 2025)", "assay": "Kinetic inertness of [^225Ac(macropa)]^+: challenge with 50-fold excess La^3+", "assay_type": "physicochemical", "settings": "50-fold excess of La^3+, macropa 0.59 μM, RT, over 7 days", "procedure": "General. Stock solutions of La(NO3)3 (0.001 M or 0.1 M) were prepared in H2O. To the radiolabeled samples containing macropa (10 μL of 10^−5 M stock; 1.0×10^−10 moles) or DOTA (10 μL of 10^−3 M stock; 1.0×10^−8 moles) and ^225Ac (10 μL, 26 kBq) in NH4OAc buffer (pH 6, 0.15 M, 150 μL), a 50-fold mole excess of La^3+ was added (5 μL, of 0.001 M or 0.1 M stock were added to solutions containing macropa and DOTA, respectively). The solutions were kept at room temperature and analyzed by iTLC at several time points over the course of 8 days. The iTLC plates were developed using citric acid (0.05 M, pH 5) as the eluent. Under these conditions, [^225Ac(macropa)]^+ and [^225Ac(DOTA)]^− remained at the baseline (RF=0) and any unchelated ^225Ac (^225Ac-citrate) migrated with the solvent front (RF=1). Percent of complex remaining intact was calculated by integrating area under the peaks on the radiochromatogram and dividing the counts associated with the ^225Ac-complex (RF=0) by the total counts integrated along the length of the iTLC plate.\nThe long half-life of ^225Ac necessitates its stable complex retention in vivo to avoid off-target damage to normal tissues arising from the release of free ^225Ac^3+. Furthermore, the stability of ^225Ac complexes against transmetalation and transchelation needs to be high. […]"}
{"smiles": "O=C([O-])c1cccc(CN2CCOCCOCCN(Cc3cccc(C(=O)[O-])n3)CCOCCOCC2)n1.[225Ac+3]", "note": "[[^225Ac(macropa)]^+]", "values": [{"measurement": "^225Ac complex remained intact by radio-TLC", "result": 98, "unit": "%"}]}
